Reference: patent US9884832B2 (priority 2011, dated 2018)
Like-named read-outs stand apart in the source and are kept apart here.

Tests used:
[1] = biological target: AM2 V27A (valine→alanine mutation at residue 27 in the M2 protein) (Influenza A virus, UniProt P0DOF5, V27A); type: cell-based, influenza virus A/Udorn/72
[2] = biological target: AM2 S31N (serine→asparagine mutation at residue 31 in the M2 protein) (Influenza A virus, UniProt P0DOF5, S31N); type: cell-based, influenza virus A/Udorn/72

Row | Structure (SMILES) | V27A OOcyte Inhibition at 100 uM (%) [1] | S31N OOcyte Inhibition at 100 uM (%) [2] | V27A OOcyte Inhibition at 100 uM (%) ([1]; pH 5.5) | S31N OOcyte Inhibition at 100 uM (%) ([2]; pH 5.5)
1 | Oc1cc(OCc2ccccc2)ccc1CNC12CC3CC(CC(C3)C1)C2 [Example 37a, 2-(Adamantan-1-ylaminomethyl)-5-benzyloxy-phenol] | B (key: (A)=31-95%; (B)=0-30%) | A (key: (A)=31-95%; (B)=0-30%) |  | 
2 | Cc1nc(-c2ccc(CNC34CC5CC(CC(C5)C3)C4)s2)cs1 [Example 156a, N-((5-(2-methylthiazol-4-yl)thiophen-2-yl)methyl)adamantan-1-amine] | A (key: (A)=31-95%; (B)=0-30%) | A (key: (A)=31-95%; (B)=0-30%) |  | 
3 | c1cc2c(cc1CNC13CC4CC(CC(C4)C1)C3)OCO2 [Example 49] |  |  | B (key: (A)=31-95%; (B)=0-30%) | B (key: (A)=31-95%; (B)=0-30%)
4 | CC(=O)Oc1ccc(CNC23CC4CC(CC(C4)C2)C3)cc1 [Example 33, Acetic acid 4-(adamantan-1-ylaminomethyl)-phenyl ester] |  |  | B (key: (A)=31-95%; (B)=0-30%) | A (key: (A)=31-95%; (B)=0-30%)
5 | Oc1ccc(/C=N/C23CC4CC(CC(C4)C2)C3)c(O)c1 [Example 7] |  |  | A (key: (A)=31-95%; (B)=0-30%) | B (key: (A)=31-95%; (B)=0-30%)
6 | O=C1CCCN1c1ccc(CNC23CC4CC(CC(C4)C2)C3)cc1 [Example 45a, 1-(4-((adamantan-1-ylamino)methyl)phenyl)pyrrolidin-2-one] | B (key: (A)=31-95%; (B)=0-30%) | A (key: (A)=31-95%; (B)=0-30%) |  | 
7 | c1scc2[nH]c(CNC34CC5CC(CC(C5)C3)C4)nc12 [Example 171a, Adamantan-1-yl-(1H-thieno[3,4-d]imidazol-2-ylmethyl)-amine] | B (key: (A)=31-95%; (B)=0-30%) | A (key: (A)=31-95%; (B)=0-30%) |  | 
8 | CSc1ccc(-c2ccc(CNC34CC5CC(CC(C5)C3)C4)s2)cc1 [Example 112a, N-((5-(4-(methylthio)phenyl)thiophen-2-yl)methyl)adamantan-1-amine] | B (key: (A)=31-95%; (B)=0-30%) | A (key: (A)=31-95%; (B)=0-30%) |  | 
9 | CC1(C)C2CCC(CNCc3ccc(O)cc3O)C1C2 (stereo not drawn) [Example 114, 4-{[(6,6-Dimethyl-bicyclo[3.1.1]hept-2-ylmethyl)-amino]methyl}-benzene-1,3-diol] |  |  | B (key: (A)=31-95%; (B)=0-30%) | B (key: (A)=31-95%; (B)=0-30%)
10 | Oc1ccc(CN2CCC3(CCCCC3)CC2)c(O)c1 [Example 115, 4-(3-Aza-spiro[5.5]undec-3-ylmethyl)-benzene-1,3-diol] |  |  | B (key: (A)=31-95%; (B)=0-30%) | B (key: (A)=31-95%; (B)=0-30%)
11 | CN(CCC#N)c1ccc(CNC23CC4CC(CC(C4)C2)C3)cc1 [Example 38, 3-((4-((Adamantan-1-ylamino)methyl)phenyl)(methyl)amino)propanenitrile] |  |  | B (key: (A)=31-95%; (B)=0-30%) | A (key: (A)=31-95%; (B)=0-30%)
12 | c1ccc2nc(CNC34CC5CC(CC(C5)C3)C4)ccc2c1 [Example 98, Adamantan-1-yl-quinolin-2-ylmethyl-amine] |  |  | B (key: (A)=31-95%; (B)=0-30%) | A (key: (A)=31-95%; (B)=0-30%)
13 | CC(C)(C)OC(=O)Nc1ccc(CNC23CC4CC(CC(C4)C2)C3)cc1 [Example 12, [4-(Adamantan-1-ylaminomethyl)-phenyl]carbamic acid tert-butyl ester] |  |  | B (key: (A)=31-95%; (B)=0-30%) | B (key: (A)=31-95%; (B)=0-30%)
14 | Oc1cc(-c2ccccc2)ccc1CNC12CC3CC(CC(C3)C1)C2 [Example 47a, 4-(Adamantan-1-ylaminomethyl)-biphenyl-3-ol] | B (key: (A)=31-95%; (B)=0-30%) | A (key: (A)=31-95%; (B)=0-30%) |  | 
15 | O=[N+]([O-])c1ccccc1CNC12CC3CC(CC(C3)C1)C2 [Example 30, Adamantan-1-yl-(2-nitro-benzyl)-amine] |  |  | B (key: (A)=31-95%; (B)=0-30%) | B (key: (A)=31-95%; (B)=0-30%)
16 | COc1ccc(CN(C)C23CC4CC(CC(C4)C2)C3)cc1 [Example 32, Adamantan-1-yl-(4-methoxy-benzyl)-methyl-amine] |  |  | B (key: (A)=31-95%; (B)=0-30%) | B (key: (A)=31-95%; (B)=0-30%)
17 | O=c1[nH]cc(CNC23CC4CC(CC(C4)C2)C3)c(=O)[nH]1 [Example 169a, 5-((adamantan-1-ylamino)methyl)pyrimidine-2,4(1H,3H)-dione] | B (key: (A)=31-95%; (B)=0-30%) | B (key: (A)=31-95%; (B)=0-30%) |  | 
18 | C[Si](C)(C)c1ccc(CNC23CC4CC(CC(C4)C2)C3)cc1 [Example 6a, Adamantan-1-yl-(4-trimethylsilanyl-benzyl)-amine] | B (key: (A)=31-95%; (B)=0-30%) | A (key: (A)=31-95%; (B)=0-30%) |  | 

Row | Structure (SMILES) | V27A OOcyte Inhibition at 100 uM (%) [1] | S31N OOcyte Inhibition at 100 uM (%) [2] | V27A OOcyte Inhibition at 100 uM (%) ([1]; pH 5.5) | S31N OOcyte Inhibition at 100 uM (%) ([2]; pH 5.5)
19 | COc1cc(Cl)sc1CNC12CC3CC(CC(C3)C1)C2 [Example 80a] | B (key: (A)=31-95%; (B)=0-30%) | B (key: (A)=31-95%; (B)=0-30%) |  | 
20 | c1csc(-c2ccc(CNC34CC5CC(CC(C5)C3)C4)cc2)c1 [Example 29a, N-(4-(Thiophen-2-yl)benzyl)adamantan-1-amine methanesulfonate] | B (key: (A)=31-95%; (B)=0-30%) | A (key: (A)=31-95%; (B)=0-30%) |  | 
21 | c1cc(COc2ccc(CNC34CC5CC(CC(C5)C3)C4)cc2)co1 [Example 22, Adamantan-1-yl-[4-(furan-3-ylmethoxy)-benzyl]-amine] |  |  | B (key: (A)=31-95%; (B)=0-30%) | A (key: (A)=31-95%; (B)=0-30%)
22 | Oc1ccc(/C=N/C23CC4CC(CC(C4)C2)C3)cc1 [Example 6] |  |  | B (key: (A)=31-95%; (B)=0-30%) | B (key: (A)=31-95%; (B)=0-30%)
23 | c1ccc(-c2nnc(CNC34CC5CC(CC(C5)C3)C4)o2)cc1 [Example 115a, N-((5-phenyl-1,3,4-oxadiazol-2-yl)methyl)adamantan-1-amine] | B (key: (A)=31-95%; (B)=0-30%) | A (key: (A)=31-95%; (B)=0-30%) |  | 
24 | c1ccc2nc(CNC34CC5CC(CC(C5)C3)C4)ccc2c1 [Example 56a, Adamantan-1-yl-quinolin-2-ylmethyl-amine] | B (key: (A)=31-95%; (B)=0-30%) | A (key: (A)=31-95%; (B)=0-30%) |  | 
25 | COc1cc(CNC23CC4CC(CC(C4)C2)C3)ccc1O [Example 50, 4-(Adamantan-1-ylaminomethyl)-2-methoxy-phenol] |  |  | A (key: (A)=31-95%; (B)=0-30%) | B (key: (A)=31-95%; (B)=0-30%)
26 | CS(=O)(=O)c1ccc(CNC23CC4CC(CC(C4)C2)C3)cc1 [Example 25, Adamantan-1-yl-(4-methanesulfonyl-benzyl)-amine] |  |  | B (key: (A)=31-95%; (B)=0-30%) | B (key: (A)=31-95%; (B)=0-30%)
27 | c1cc(CNC23CC4CC(CC(C4)C2)C3)cs1 [Example 68a, Adamantan-1-yl-thiophen-3-ylmethyl-amine] | A (key: (A)=31-95%; (B)=0-30%) | B (key: (A)=31-95%; (B)=0-30%) |  | 
28 | COc1ccc(-c2nnc(CNC34CC5CC(CC(C5)C3)C4)o2)cc1 [Example 127a, N-((5-(4-methoxyphenyl)-1,3,4-oxadiazol-2-yl)methyl)adamantan-1-amine] | B (key: (A)=31-95%; (B)=0-30%) | A (key: (A)=31-95%; (B)=0-30%) |  | 
29 | c1coc(-c2ccc(CNC34CC5CC(CC(C5)C3)C4)s2)c1 [Example 136a, N-((5-(Furan-2-yl)thiophen-2-yl)methyl)adamantan-1-amine] | B (key: (A)=31-95%; (B)=0-30%) | A (key: (A)=31-95%; (B)=0-30%) |  | 
30 | Cc1ccc(C(C)NC23CC4CC(CC(C4)C2)C3)s1 (stereo not drawn) [Example 97a, N-(1-(5-methylthiophen-2-yl)ethyl)adamantan-1-amine] | B (key: (A)=31-95%; (B)=0-30%) | B (key: (A)=31-95%; (B)=0-30%) |  | 
31 | OC1CCN(C2C3CC4CC(C3)CC2C4)CC1 (stereo not drawn) [Example 104, 1-Adamantan-2-yl-piperidin-4-ol] |  |  | B (key: (A)=31-95%; (B)=0-30%) | B (key: (A)=31-95%; (B)=0-30%)
32 | OC12CC3CC(C1)CC(NCc1ccc(-c4ccccc4)s1)(C3)C2 [Example 191a, 3-[(5-Phenyl-thiophen-2-ylmethyl)-amino]adamantan-1-ol] | B (key: (A)=31-95%; (B)=0-30%) | A (key: (A)=31-95%; (B)=0-30%) |  | 
33 | COc1cccc(COc2ccc(CNC34CC5CC(CC(C5)C3)C4)cc2)c1 [Example 14a, Adamantan-1-yl-[4-(3-methoxy-benzyloxy)-benzyl]-amine] | B (key: (A)=31-95%; (B)=0-30%) | A (key: (A)=31-95%; (B)=0-30%) |  | 
34 | c1cc(-c2nc(CNC34CC5CC(CC(C5)C3)C4)no2)cs1 [Example 143a, N-((5-(thiophen-3-yl)-1,2,4-oxadiazol-3-yl)methyl)adamantan-1-amine] | B (key: (A)=31-95%; (B)=0-30%) | A (key: (A)=31-95%; (B)=0-30%) |  | 
35 | CC(=O)Oc1ccc(CNC23CC4CC(CC(C4)C2)C3)c(O)c1 [Example 60, Acetic acid 4-(adamantan-1-ylaminomethyl)-3-hydroxy-phenyl ester] |  |  | B (key: (A)=31-95%; (B)=0-30%) | A (key: (A)=31-95%; (B)=0-30%)
36 | N=C(Nc1ccc(O)cc1)C12CC3CC(CC(C3)C1)C2 [Example 5] |  |  | B (key: (A)=31-95%; (B)=0-30%) | B (key: (A)=31-95%; (B)=0-30%)
